# “And” between values parts separate entries of the source, which are not always exact repeats. Equal entries are not always repeated.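 A five-concentration, 48-hour dose response in 96-well plates underlies each endpoint, interpolated linearly between surrounding concentrations. GI50: concentration for 50% inhibition of growth. TGI marks complete inhibition of growth.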
# Test system: MDA-MB-468 breast
# Experiment: NCI anticancer screen, dose series, 48 h
SMILES,GI50,TGI [µM]
CCN(CC)CCC(CNc1ccnc2cc(Cl)ccc12)c1ccccc1 (configuration not stated),2.16 µM,5.69
O=C(Cc1csc2nc(-c3ccc(Cl)cc3)cn12)N/N=C/c1ccccc1O,1.57 µM,4.92
COc1ccc(Cn2cc3c(c2)-c2oncc2CC3)cc1OC,0.0854 µM,0.254
NC1=NC(=O)/C(=C/c2ccc3ncccc3c2)S1,> 17.1 µM,> 25
Cc1ccc(-c2nc(N3CCNCC3)c3oc(-c4ccccc4)nc3n2)cc1,1.81 µM,3.8
Cc1ccc(NC(=O)Nc2c(Cl)cccc2Cl)cn1,3.12 µM,12.5
C[C@@H](NC(=O)c1ncnc(N)c1Cl)c1ncc(C(=O)Nc2cc(C(F)(F)F)c(Cl)cn2)s1,19.1 µM,52.5
O=C1c2cccnc2C(=O)c2c1c(C(=O)NCCn1ccnc1)c1ccccn21,2.34 µM,5.61
COc1cc(/C=C/C(=O)/C=C/c2cc3ccc(Cl)cc3n(Cc3ccccc3)c2=O)ccc1O,1.65 µM,5.2
COc1ccc(C(=O)O[C@H]2[C@H](O[C@H]3[C@@H](O)COC(O[C@H]4C[C@H]5[C@@H]6CC=C7C[C@@H](O)CC[C@]7(C)[C@H]6CC[C@]5(C)[C@H]4[C@H](C)C(=O)CCC(C)C)[C@@H]3OC(C)=O)OC[C@@H](O)[C@@H]2O)c(C)c1 (some centres not stated),0.0104 µM,4.89
CC(C)(C)NC(=O)[C@H]1CC[C@H]2[C@@H]3CC[C@H]4NC(=O)C=C[C@]4(C)[C@H]3CC[C@]12C,63 µM and > 100 µM,> 100
COc1ccc(Cl)cc1Nc1nc(C(F)(F)F)ccc1C(=O)N/N=C/c1cccnc1,0.797 µM,4.66
COc1ccc(-c2nn(-c3ccc(NC(=O)c4cc(Cl)cc(Cl)c4)cc3)cc2-c2ccncc2)cc1Cl,7.06 µM,> 100
COc1cccc(C2=C(c3cn(C)c4cc(F)ccc34)C(=O)NC2=O)c1,13.5 µM,> 25
CCN(CC)c1ccc2nc3c4ccccc4c(=O)cc-3n(-c3ccccc3)c2c1,0.333 µM,1.98
Clc1ccc(Nc2nc(Nc3ccccc3)nc(Nc3ccc(-c4cc(-c5ccc(Cl)cc5)on4)cc3)n2)cc1,26 µM,> 100
O=c1c2ccccc2nc(-c2ccccc2Cl)n1-c1nnc(C(F)(F)F)s1,2.29 µM,7.81
Cc1ccc(/C=C/c2c(C(=O)/C=C/c3ccc(Cl)cc3)c(C)nc3ccccc23)cc1,2.01 µM,3.82
CC(c1ccccc1)[C@@H](C(=O)Nc1ccc(I)cc1F)N1C(=O)N[C@H](c2ccc(OC[C@H](O)CO)cc2)C1=O (some centres not stated),11.5 µM,> 25
Cc1nc(-c2cnc(NC(C)C)n(C)c2=O)ccc1Oc1ccnc(-c2cnn(C)c2)c1,3.01 µM,73.9
Cc1ccc(Cl)cc1NC(=O)c1cc2ccccc2cc1O,1.31 µM,7.25

# — PubChem BioAssay (NCI)
